# Read-outs that look alike come from different tables or passages of the source.
# Key:
# Assay type in all cases: cell-based, E. coli
# F+ donor cells = assay: microbe, parasite or virus in culture; details: for EC50: Escherichia coli, 100 min, vs. F+ donor cells, read-out: 100 minute EC50; for Selectivities by EC50, Transconj.: listed as vs. F+ donor cells relative to transconjugants
# Description: (§1) A 96-well fluorescence-based assay using oxygen biosensor plates (Becton Dickinson, Franklin Lakes, N.J., U.S.A.) was employed to monitor bacterial cell survival. FIG. 7 schematically illustrates the assay mechanism of action. […] In the absence of viable bacteria, however, no fluorescence emission is detected because the fluorophore is quenched by free oxygen. The assay can further be utilized to measure conjugative DNA transfer.
# (§2) Relaxase-dependent cell survival was examined by placing cultures of F+/TraI+ E. coli cells (with antibiotic resistance, e.g., Ab^r1, on a non-conjugative plasmid) within wells and exposing them to putative inhibitory compounds. […] Negative controls for this assay can be F− (Ab^r2) cells and F+ cells (Ab^r1) containing either no F plasmid relaxase (TraI) gene, or a TraI harboring catalytic tyrosine to phenylalanine mutations; in both cases, these control cells should be resistant to relaxase-dependent cell toxicity. […] Fluorescence can be measured using a PHERASTAR™ fluorescence plate reader (BMG LABTECH, Offenburg, Germany) over 8 hours time.
# transconjugants = assay: microbe, parasite or virus in culture; details: for EC50: Escherichia coli, 100 min, read-out: 100 minute EC50, vs. transconjugants; for Selectivities by EC50, Donors: listed as vs. transconjugants relative to donors
# Description: as §1, §2
# F− recipient cells = assay: microbe, parasite or virus in culture; details: for EC50: Escherichia coli, 100 min, vs. F− recipient cells, read-out: 100 minute EC50; for Selectivities by EC50, Donors: listed as vs. F− recipient cells relative to donors; for Selectivities by EC50, Transconj.: listed as vs. F− recipient cells relative to transconjugants
# Description: as §1, §2
# [1] = system: DNA conjugation from F+ (JS10) cells to F− (JS4) cells; assay: Mating assay (conjugative DNA transfer); details: Escherichia coli, F+ (JS10) donors to F− (JS4) recipients; FIG. 4D; read-out: EC50 of inhibition of DNA conjugation
# Method: Mating assays were performed as described (Matson et al., 2001). Briefly, the donor strain JS10 contains pOX38T, a mini-F-plasmid capable of conjugative transfer, which also carries a Tet resistance gene, while the recipient strain JS4 is F− and Str^r. Donor and recipient strains from saturated overnight cultures grown under antibiotic selection were diluted 1:50 into LB and grown to an OD600 of approximately 0.6 in the absence of selection at 37° C. Donors and recipients were then mixed at a ratio of one donor to nine recipients in the presence of the desired concentrations of pNp (e.g., 10, 100 μM, 1, 10 mM) and incubated at 37° C. for five minutes. Following this incubation, the mating mixtures were diluted 1:10 into LB containing the desired concentration of pNp and incubated for a further 30 minutes. Following mating, the mixtures were vortexed to disrupt mating pairs and serially diluted into 0.9% sterile saline. Dilutions, predicted to result in 300-500 colonies on positive control plates, were plated on LB-agar plates containing both streptomycin and tetracycline in order to select for transconjugants and counter select for donors and unmated recipients. Eight replicate samples of each final dilution were plated, the colony counts culled for outliers at 95% confidence, and then averaged.
# [2] = first EC50 block, mass concentration
# [3] = second block, mass concentration
smiles,measurement,setting,value
"O=P(O)(O)NP(=O)(O)O [pNp, imidodiphosphate]",EC50,F+ donor cells; [2],0.063 µg/mL
same,EC50,F+ donor cells; first EC50 block,0.356 µM
same,EC50,F+ donor cells; [3],8000 µg/mL
same,EC50,F+ donor cells; second block,43000 µM
same,"Selectivities by EC50, Transconj.",F+ donor cells; first EC50 block,6.7E−02
same,"Selectivities by EC50, Transconj.",F+ donor cells; second block,4.9E+00
same,EC50,transconjugants; first EC50 block,5 µM
same,EC50,transconjugants; [2],0.936 µg/mL
same,EC50,transconjugants; second block,9000 µM
same,EC50,transconjugants; [3],2000 µg/mL
same,"Selectivities by EC50, Donors",transconjugants; first EC50 block,1.5E+01
same,"Selectivities by EC50, Donors",transconjugants; second block,2.0E−01
same,EC50,F− recipient cells; [2],105 µg/mL
same,EC50,F− recipient cells; first EC50 block,593 ± 3.5 µM
same,EC50,F− recipient cells; [3],6000 µg/mL
same,EC50,F− recipient cells; second block,35000 µM
same,"Selectivities by EC50, Donors",F− recipient cells; first EC50 block,1.7E+03
same,"Selectivities by EC50, Donors",F− recipient cells; second block,8.0E−01
same,"Selectivities by EC50, Transconj.",F− recipient cells; first EC50 block,1.1E+02
same,"Selectivities by EC50, Transconj.",F− recipient cells; second block,4.0E−00
same,EC50,[1],~10 µM
